# Assay results published in patent US20210299044A1, “SYSTEMS AND METHODS FOR DELIVERY OF DRUGS AND OTHER SUBSTANCES COMPRISING DEEP EUTECTIC SOLVENTS” (Novilla Pharmaceuticals, Inc., priority 2018, published 2021).
# Columns and labels:
# [1] = values stated in description, no method given; cited from earlier work
# [2] = Hydrolysis of aspirin in choline chloride/urea deep eutectic solvent, determined using HPLC; type: physicochemical
# Procedure: In this example, an aspirin formulation was prepared using choline chloride and urea. In this example, choline chloride was heated in an oven at 65° C. for 10 hours. Then, 1 part choline chloride (by volume) was added to 2 parts urea in a beaker. The beaker was sealed with parafilm and the choline chloride and urea allowed to mix to form a deep eutectic solvent (DES). Next, the mixture was passed through a 4A 8-12 mesh molecular sieve, and stirred overnight, to form anhydrous DES.
# 50 mg/ml of aspirin was then added to the DES. […] The hydrolysis was determined using HPLC.
# It is believed that heating the choline chloride removes water.
"aspirin found to have hydrolyzed ([2]; 50 mg/ml aspirin in anhydrous DES (1 part choline chloride : 2 parts urea by volume), choline chloride heated at 65° C. for 10 hours, molecular sieve, HPLC)","aspirin found to hydrolyze ([2]; comparison: choline chloride and urea mixed without heating the choline chloride, same procedure otherwise)",SMILES,pKa [1]
–,–,CN(C)CCc1c[nH]c2ccc(CS(=O)(=O)N3CCCC3)cc12 [almotriptan],8.77
1%,over 8%,"CC(=O)Oc1ccccc1C(=O)O [aspirin, acetylsalicylic acid]",–
–,–,CN[C@@H]1CCc2[nH]c3ccc(C(N)=O)cc3c2C1 [frovatriptan],17.27
